Assay results as given in the supplement of paper PMC10307832.

Columns and labels:
Assay in all cases: relative viability (nuclei count vs DMSO), 5 days (fraction); higher = more cells survive
Tozasertib + Bortezomib = compound: Cc1cc(Nc2cc(N3CCN(C)CC3)nc(Sc3ccc(NC(=O)C4CC4)cc3)n2)n[nH]1 [Tozasertib] + CC(C)C[C@H](NC(=O)[C@H](Cc1ccccc1)NC(=O)c1cnccn1)B(O)O [Bortezomib] (partner 0.002 µM)
Summary of the method: (§1)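 Lung cancer cell lines in 1536-well plates were dosed by pin tool the day after seeding, either with one drug alone or with a fixed anchor-drug dose plus five library-drug doses (not always all listed) in √10 steps. After 5 days, cells were fixed and their nuclei stained in one step (final 0.05% Triton X-100, 1% formaldehyde, 1 ug/ml Hoechst), then counted on 4× images. Relative viability is the nuclei count in treated wells divided by that in vehicle wells. Values are medians of duplicate plates.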

Tozasertib + Crizotinib = compound: Cc1cc(Nc2cc(N3CCN(C)CC3)nc(Sc3ccc(NC(=O)C4CC4)cc3)n2)n[nH]1 [Tozasertib] + C[C@@H](Oc1cc(-c2cnn(C3CCNCC3)c2)cnc1N)c1c(Cl)ccc(F)c1Cl [Crizotinib] (partner 1 µM)
Summary of the method: as §1

Tozasertib + Vorinostat = compound: Cc1cc(Nc2cc(N3CCN(C)CC3)nc(Sc3ccc(NC(=O)C4CC4)cc3)n2)n[nH]1 [Tozasertib] + O=C(CCCCCCC(=O)Nc1ccccc1)NO [Vorinostat] (partner 1 µM)
Summary of the method: as §1

Tozasertib + Navitoclax = compound: Cc1cc(Nc2cc(N3CCN(C)CC3)nc(Sc3ccc(NC(=O)C4CC4)cc3)n2)n[nH]1 [Tozasertib] + CC1(C)CCC(c2ccc(Cl)cc2)=C(CN2CCN(c3ccc(C(=O)NS(=O)(=O)c4ccc(N[C@H](CCN5CCOCC5)CSc5ccccc5)c(S(=O)(=O)C(F)(F)F)c4)cc3)CC2)C1 [Navitoclax] (partner 0.5 µM)
Summary of the method: as §1

Tozasertib + Olaparib = compound: Cc1cc(Nc2cc(N3CCN(C)CC3)nc(Sc3ccc(NC(=O)C4CC4)cc3)n2)n[nH]1 [Tozasertib] + O=C(c1cc(Cc2n[nH]c(=O)c3ccccc23)ccc1F)N1CCN(C(=O)C2CC2)CC1 [Olaparib] (partner 8 µM)
Summary of the method: as §1

| Cell Line | relative viability (Tozasertib + Bortezomib; first compound 0.004 µM) | relative viability (Tozasertib + Bortezomib; first compound 0.01265 µM) | relative viability (Tozasertib + Bortezomib; first compound 0.04 µM) | relative viability (Tozasertib + Bortezomib; first compound 0.1265 µM) | relative viability (Tozasertib + Crizotinib; first compound 0.004 µM) | relative viability (Tozasertib + Crizotinib; first compound 0.01265 µM) | relative viability (Tozasertib + Crizotinib; first compound 0.1265 µM) | relative viability (Tozasertib + Vorinostat; first compound 0.004 µM) | relative viability (Tozasertib + Vorinostat; first compound 0.01265 µM) | relative viability (Tozasertib + Vorinostat; first compound 0.04 µM) | relative viability (Tozasertib + Vorinostat; first compound 0.1265 µM) | relative viability (Tozasertib + Navitoclax; first compound 0.004 µM) | relative viability (Tozasertib + Navitoclax; first compound 0.01265 µM) | relative viability (Tozasertib + Navitoclax; first compound 0.04 µM) | relative viability (Tozasertib + Navitoclax; first compound 0.1265 µM) | relative viability (Tozasertib + Olaparib; first compound 0.004 µM) | relative viability (Tozasertib + Olaparib; first compound 0.01265 µM) | relative viability (Tozasertib + Olaparib; first compound 0.04 µM) | relative viability (Tozasertib + Olaparib; first compound 0.1265 µM) | relative viability (Tozasertib + Crizotinib; first compound 0.04 µM) |
| --- | --- | --- | --- | --- | --- | --- | --- | --- | --- | --- | --- | --- | --- | --- | --- | --- | --- | --- | --- | --- |
| NCI-H2347 | 1.18 | 0.961 | 1 | 0.658 | 0.722 | 0.71 | 0.723 | 0.586 | 0.643 | 0.57 | 0.664 | 0.921 | 0.761 | 0.901 | 0.755 | 0.528 | 0.616 | 0.697 | 0.582 | – |
| NCI-H2405 | 1.05 | 0.944 | 0.96 | 0.826 | 0.844 | 0.83 | 0.67 | 1.16 | 0.809 | 1.02 | 0.594 | 0.795 | 0.95 | 0.671 | 0.871 | 0.913 | – | 0.691 | – | 0.857 |
| NCI-H3122 | 1.01 | 0.994 | 1.01 | 1.02 | 0.26 | 0.287 | 0.277 | 0.852 | 1.07 | 0.869 | 0.485 | 0.996 | 1 | 1.04 | 1.05 | 0.646 | 0.67 | 0.62 | 0.641 | 0.289 |
| PC-3 [JPC-3] | 0.787 | 0.829 | 0.881 | 0.757 | 0.884 | 0.973 | 0.945 | 0.616 | 0.51 | 0.71 | 0.566 | 0.579 | 0.699 | 0.935 | 0.756 | 0.807 | 1.15 | 1.16 | 1.14 | 0.94 |
| PC-14 | 0.861 | 0.9 | 1.03 | 0.896 | 0.896 | 0.914 | 0.884 | – | 0.741 | 0.879 | 0.121 | 1.03 | – | 1.01 | – | – | 0.208 | 0.256 | 0.224 | 1.02 |
| RERF-LC-KJ | 0.983 | 1.11 | 1.12 | 0.96 | 0.815 | 0.792 | 0.689 | – | 0.519 | 0.654 | 0.478 | 0.994 | 0.93 | 0.804 | 0.997 | 0.945 | 0.871 | 0.865 | 0.668 | 0.734 |
| SK-LU-1 | 1.18 | 1.07 | 1.27 | 0.813 | 0.932 | 0.977 | 0.889 | 0.893 | 0.788 | 0.82 | 0.34 | 0.894 | 0.939 | 0.981 | 0.635 | 0.466 | 0.455 | 0.432 | 0.518 | – |
| SW 1573 | 1.15 | 1.07 | 1.22 | 0.744 | 0.782 | 0.706 | 0.273 | 0.624 | 0.599 | 0.509 | 0.192 | 1.1 | 1.06 | 1.15 | 0.816 | 0.479 | 0.452 | 0.456 | 0.208 | 0.762 |
| UMC-11 | 0.729 | 0.621 | 0.768 | 0.186 | 0.478 | 0.568 | 0.118 | 0.408 | 0.327 | 0.291 | 0.16 | 0.381 | 0.295 | 0.303 | 0.13 | 0.367 | 0.47 | 0.362 | 0.257 | 0.416 |
